# Read-outs that look alike come from different tables or passages of the source.
# What was measured:
# Assay type in all cases: cell-based
# [1] = molecular target: phosphorylated EGFR (pEGFR) (Homo sapiens (Human), UniProt P00533); experiment: Detection of phosphorylated EGFR (pEGFR) in EGF-stimulated A431 cells (AlphaLISA); details: A431 cells (10% FBS), 4 hours incubation, then EGF 30 ng/mL for 10 minutes
# Protocol: […] were performed to measure phosphorylated EGFR levels using A431 cells (10% FBS). A431 (1.0*10^4 cells/40 μl/well) cells were seeded in 384 well. Compounds were dissolved in DMSO, serially diluted in DMSO and then were added, mixed, and incubated for 4 hours at 37° C., 5% CO2. Following the 4-hours incubation, cells were stimulated for 10 minutes with EGF (Invitrogen, cat #PHG0311) at a final concentration of 30 ng/mL in the incubator. The media was aspirated and cells were lysed in […] lysis buffer with protease and phosphatase inhibitors (PerkinElmer, cat #ALSU-PEGFR-A50K). The plates were placed on a shaker for 5 minutes and then incubated for 30 min at 4° C. for complete lysis. The lysate was transferred to an Optiplate (Perkin Elmer, cat #6007290).
# Acceptor mix (PerkinElmer, cat #ALSU-PEGFR-A50K) was prepared just before use and 5 μL was dispensed to all the wells, followed by a 1.5-2 h incubation at room temperature in dark. The donor mix (PerkinElmer, cat #ALSU-PEGFR-A50K) was prepared under low light conditions prior to use and […] of donor mix was added to all the wells under subdued lighting or green filters. The plates were placed on a shaker for 5 min, sealed, and incubated overnight at room temperature in dark. Plates were read on the Envision (PerkinElmer) using standard AlphaLISA settings.
# The percentage of inhibition on EGFR phosphorylation was calculated following equation: % Inhibition=100×(LumHC−LumSample)/(LumHC−LumLC). The low and high controls (LC/HC) are generated from lysate from wells with cells treated with DMSO or […] Staurosporine (BioAustralis, cat #BIA-S1086), […]. IC50 values were calculated by fitting the Curve using XLfit (v5.3.1.3), equation 201: Y=Bottom+(Top−Bottom)/(1+10^((Log IC50−X)*HillSlope)).
# [2] = molecular target: phosphorylated ERBB2 (pERBB2) (Homo sapiens (Human), UniProt P04626); experiment: Detection of phosphorylated ERBB2 (pERBB2) by ELISA in BT-474 cells; details: four hours incubation with compound
# Protocol: BT-474 cells were seeded into a 96-well at 2.0*10^4 cells/100 μl/well. Compounds were dissolved and serially diluted in DMSO. The compounds were then were added, mixed, and incubated for four hours at 37° C., 5% CO2. […] Following the four hour incubation with compounds, cell lysates were prepared. Plates were centrifuged for 5 min at 3000 RPM, and supernatant was removed from each well. Cells were washed 3 times by resuspension in 150 μl PBS, followed by centrifugation and removal of the supernatant, as above. 100 μl of cell lysis buffer (Boston BioProducts, cat #BP-115D) supplied with 1× complete ULTRA cocktail inhibitor (Thermo ScientificTM, cat #78443) was then added to the washed cells. Cells were incubated with lysis buffer for 1 hour at 4° C., and then stored at -80° C. Enzyme-linked immunosorbent assays (ELISA) were performed to measure phosphorylated ERBB2 levels. […] The next day, plates were washed with PBS+0.05% Tween20 (PBST). 150 μl of 5% BSA blocking solution was added for 1 hour at room temperature, with shaking. Plates were washed with PB ST. Cell lysates were thawed and 100 μl of lysate was added to the ELISA plate. The plates were incubated for 2 hours at room temperature, with shaking. ELISA plates were then washed with PBST and 100 μl of an HRP-labeled detection antibody that binds phosphorylated tyrosine (R&D Systems, cat #841913) was added to each well. Plates were incubated for 1 hour at room temperature, with shaking. Plates were then washed with PBST, and 100 μl TMB substrate solution (R&D Systems, cat #DY999) was added. Plate were incubated in the dark for 20 minutes at room temperature. 50 μl of Stop solution (R&D Systems, cat #DY994) (50 μl) was added to each well and mixed. […] The remaining kinase activity by calculated using the following formula: % Relative activity=100×([…]). The low and high control values (“LC” and “HC”) were generated from lysate from wells without cells or with cells treated with 0.1% DMSO, respectively.
# Ba/F3 ERBB2 YVMA = experiment: Cell viability assay (CellTiter Glo), Ba/F3 cells engineered to express ERBB2 YVMA; details: Mus musculus, BaF3, 72 h
# Protocol: Cells were treated with compounds, and cell viability was measured as a metric of kinase inhibition.
# BT-474, A431, MDA-MB-175VII, NCI-H1781, MCF7, and Ba/F3 cell lines were tested. The Ba/F3 cell line is IL-3-dependent mouse cell line derived from the C3H mouse strain. Ba/F3 cell lines were engineered to express human ERBB2 or EGFR kinases, rendering the cells IL-3 independent. The lines were generated via retroviral transduction utilizing a Moloney murine leukemia virus (MMLV) promoter, and constructs are stably integrated into the cell genome. The sequences of the ERBB2 and EGFR genes used were NCBI Reference Sequences NM 004448.3 and NM 005228.3, respectively.
# BT-474, A431, MDA-MB-175VII, NCI-H1781 and MCF7 cells were grown in the appropriate growth medium as described in Table B2 below, and harvested at 50-80% confluence. BT-474, A431, MDA-MB-175VII, NCI-H1781 and MCF7 cells were counted and seeded at 2,000 or 1,500 cells per well in 384-well tissue culture plates (see Table B2). Similarly, Ba/F3 cell lines engineered to express EGFR, ERBB2, or ERBB2 mutants were grown, harvested, counted and seeded at 3000 cells per well in 96-well plates. A subset of wells contained media only (low control, “LC”).
# Table B1 provides the growth media and number of cells seeded per well for the each cell line.
# Compounds were dissolved in DMSO and serially diluted. Serially-diluted compound or a DMSO only control (high control, “HC”) was added to the plated cells in each well. Compounds were tested at concentrations of about 10 μM to 0.51 nM, using three-fold dilutions. The final proportion of DMSO never exceeded 0.1%.
# Plates were placed in a 37° C., 5% CO2 incubator for 72 hours. Plates were then removed from the incubator and equilibrated for 15 minutes at room temperature. […] of CellTiter Glo reagent (Promega) was added to measure the relative level of metabolically active cells by quantifying intracellular ATP concentrations. Plates were incubated for 30 minutes at room temperature, and luminescence was measured. Percent viability was normalized to a vehicle control only using the following formula: % viability=100×(Lumsample−LumLC)/(LumHC−LumLC). Graphical curves were fitted using a nonlinear regression model with a sigmoidal dose response.
# [3] = Ba/F3 cells expressing human ERBB2 YVMA mutant, 72 hours, cell viability, CellTiter Glo, read-out: Ba/F3 ERBB2 YVMA, IC50
# [4] = read-out: Ba/F3 ERBB2 YVMA, IC50, nM
# Chain of phosphorylated ERBB2 (pERBB2) (P04626 23-1255): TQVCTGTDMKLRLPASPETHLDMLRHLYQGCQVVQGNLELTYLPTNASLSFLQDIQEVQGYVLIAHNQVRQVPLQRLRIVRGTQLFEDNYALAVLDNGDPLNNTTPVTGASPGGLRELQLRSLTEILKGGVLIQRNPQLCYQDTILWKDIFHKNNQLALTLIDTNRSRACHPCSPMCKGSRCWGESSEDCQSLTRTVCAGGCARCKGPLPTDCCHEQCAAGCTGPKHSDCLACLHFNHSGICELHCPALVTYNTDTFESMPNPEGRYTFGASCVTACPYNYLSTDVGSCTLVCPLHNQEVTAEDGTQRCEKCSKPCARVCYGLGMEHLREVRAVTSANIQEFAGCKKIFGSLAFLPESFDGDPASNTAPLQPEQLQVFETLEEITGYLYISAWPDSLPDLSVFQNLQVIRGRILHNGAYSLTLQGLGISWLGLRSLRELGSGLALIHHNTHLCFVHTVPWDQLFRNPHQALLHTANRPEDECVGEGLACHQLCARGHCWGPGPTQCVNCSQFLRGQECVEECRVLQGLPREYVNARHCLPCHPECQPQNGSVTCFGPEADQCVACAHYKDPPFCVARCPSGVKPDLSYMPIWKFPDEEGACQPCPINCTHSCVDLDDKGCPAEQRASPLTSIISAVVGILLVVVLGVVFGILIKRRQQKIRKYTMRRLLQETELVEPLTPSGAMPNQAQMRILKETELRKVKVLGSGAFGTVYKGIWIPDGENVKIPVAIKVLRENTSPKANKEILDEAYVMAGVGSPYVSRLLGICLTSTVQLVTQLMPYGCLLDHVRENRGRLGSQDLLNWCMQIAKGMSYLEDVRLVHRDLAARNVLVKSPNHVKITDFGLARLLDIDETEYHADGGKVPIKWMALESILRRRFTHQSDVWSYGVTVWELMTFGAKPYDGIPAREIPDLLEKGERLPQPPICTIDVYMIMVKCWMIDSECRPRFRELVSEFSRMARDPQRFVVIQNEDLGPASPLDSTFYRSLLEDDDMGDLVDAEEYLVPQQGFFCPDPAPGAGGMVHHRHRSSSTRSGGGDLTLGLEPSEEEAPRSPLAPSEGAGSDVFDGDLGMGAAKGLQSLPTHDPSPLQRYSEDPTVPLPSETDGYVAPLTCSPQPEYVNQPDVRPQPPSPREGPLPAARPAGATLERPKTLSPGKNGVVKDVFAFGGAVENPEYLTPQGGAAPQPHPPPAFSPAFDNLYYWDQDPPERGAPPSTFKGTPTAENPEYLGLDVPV
# Chain of phosphorylated EGFR (pEGFR) (P00533 25-1210): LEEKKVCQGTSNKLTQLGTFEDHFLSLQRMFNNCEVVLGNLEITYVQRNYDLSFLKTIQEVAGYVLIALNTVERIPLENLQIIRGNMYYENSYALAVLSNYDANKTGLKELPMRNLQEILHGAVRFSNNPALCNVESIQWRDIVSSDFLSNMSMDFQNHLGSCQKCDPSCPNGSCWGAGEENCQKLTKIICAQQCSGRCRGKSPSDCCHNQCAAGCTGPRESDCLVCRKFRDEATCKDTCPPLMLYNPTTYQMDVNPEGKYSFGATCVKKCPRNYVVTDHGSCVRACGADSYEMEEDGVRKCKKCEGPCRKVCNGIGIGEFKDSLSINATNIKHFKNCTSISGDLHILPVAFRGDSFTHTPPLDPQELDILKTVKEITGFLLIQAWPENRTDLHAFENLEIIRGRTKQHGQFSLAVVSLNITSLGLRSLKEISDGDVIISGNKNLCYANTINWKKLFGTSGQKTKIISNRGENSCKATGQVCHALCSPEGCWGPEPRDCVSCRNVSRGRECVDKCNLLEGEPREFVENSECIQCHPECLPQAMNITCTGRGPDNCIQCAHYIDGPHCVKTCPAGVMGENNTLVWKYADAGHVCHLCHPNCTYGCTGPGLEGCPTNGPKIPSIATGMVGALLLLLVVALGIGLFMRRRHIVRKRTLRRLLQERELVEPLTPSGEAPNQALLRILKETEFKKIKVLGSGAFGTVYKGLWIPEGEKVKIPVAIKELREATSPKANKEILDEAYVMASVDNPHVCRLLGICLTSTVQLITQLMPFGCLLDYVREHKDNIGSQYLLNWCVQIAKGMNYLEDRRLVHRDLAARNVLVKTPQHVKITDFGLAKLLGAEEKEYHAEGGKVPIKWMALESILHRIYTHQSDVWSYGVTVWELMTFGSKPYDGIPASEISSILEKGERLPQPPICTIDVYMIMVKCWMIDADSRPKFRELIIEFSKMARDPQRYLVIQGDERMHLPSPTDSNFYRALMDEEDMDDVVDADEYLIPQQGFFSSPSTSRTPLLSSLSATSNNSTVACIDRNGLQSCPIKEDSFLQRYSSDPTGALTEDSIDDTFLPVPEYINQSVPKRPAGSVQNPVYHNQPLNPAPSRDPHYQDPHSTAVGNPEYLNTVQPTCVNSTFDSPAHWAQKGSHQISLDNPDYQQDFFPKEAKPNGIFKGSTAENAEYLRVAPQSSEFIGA
IC50 (Ba/F3 ERBB2 YVMA; [3]) [nM],SMILES,IC50 [1] [nM],IC50 [2] [nM],IC50 (Ba/F3 ERBB2 YVMA; [4]) [nM]
8.66,"Cc1cc(Nc2ncnc3cc4c(nc23)N2CCCN(C(=O)/C=C/CN(C)C)C(CO4)C2)ccc1Oc1ccn2ncnc2c1 (racemic) [Compound 54, (E)-1-(4-((4-([1,2,4]triazolo[1,5-a]pyridin-7-yloxy)-3-methylphenyl)amino)-8,9,11,12-tetrahydro-6,11-methanopyrimido[4′,5′:5,6]pyrido[3,2-b][1,4,8]oxadiazecin-10(7H)-yl)-4-(dimethylamino)but-2-en-1-one]",> 10000,29.2,–
–,"Cc1cc(Nc2ncnc3cc4c(nc23)N2CCCN(C(=O)/C=C/CN(C)C)C(CO4)C2)ccc1Oc1ccn2ncnc2c1 (single isomer, unassigned) [Example S55, Enantiomer 1, (E)-1-(4-((4-([1,2,4]triazolo[1,5-a]pyridin-7-yloxy)-3-methylphenyl)amino)-8,9,11,12-tetrahydro-6,11-methanopyrimido[4′,5′:5,6]pyrido[3,2-b][1,4,8]oxadiazecin-10(7H)-yl)-4-(dimethylamino)but-2-en-1-one]",–,17.4,–
–,"Cc1cc(Nc2ncnc3cc4c(nc23)N2CCCN(C(=O)/C=C/CN(C)C)C(CO4)C2)ccc1Oc1ccn2ncnc2c1 (single isomer, unassigned) [Example S55, Enantiomer 2, (E)-1-(4-((4-([1,2,4]triazolo[1,5-a]pyridin-7-yloxy)-3-methylphenyl)amino)-8,9,11,12-tetrahydro-6,11-methanopyrimido[4′,5′:5,6]pyrido[3,2-b][1,4,8]oxadiazecin-10(7H)-yl)-4-(dimethylamino)but-2-en-1-one]",–,304,–
–,"C=CC(=O)N1CCN2C[C@H]1COc1cc3ncnc(Nc4ccc(Cc5ccn6ncnc6c5)c(C)c4)c3nc12 [Compound 13, 1-((10S)-4-((4-([1,2,4]triazolo[1,5-a]pyridin-7-ylmethyl)-3-methylphenyl)amino)-7,8,10,11-tetrahydro-9H-6,10-methanopyrimido[4′,5′:5,6]pyrido[3,2-b][1,4,7]oxadiazonin-9-yl)prop-2-en-1-one]",1580,15.8,8.92
–,C=CC(=O)N1CCN2C[C@@H]1COc1cc3ncnc(Nc4ccc(Cc5ccn6ncnc6c5)c(C)c4)c3nc12 [Compound 19],> 10000,–,> 500
–,"[2H]C([2H])([2H])N(C/C=C/C(=O)N1CCN2C[C@H]1COc1cc3ncnc(Nc4ccc(Oc5ccn6ncnc6c5)c(C)c4)c3nc12)C([2H])([2H])[2H] [Compound 36, (E)-1-((10S)-4-((4-([1,2,4]triazolo[1,5-a]pyridin-7-yloxy)-3-methylphenyl)amino)-7,8,10,11-tetrahydro-9H-6,10-methanopyrimido[4′,5′:5,6]pyrido[3,2-b][1,4,7]oxadiazonin-9-yl)-4-(bis(methyl-d3)amino)but-2-en-1-one formic acid]",1620,9.92,6.19
–,"[2H]C([2H])([2H])N(C/C=C/C(=O)N1CCN2C[C@H]1COc1cc3ncnc(Nc4cc(C)c(Oc5ccn6ncnc6c5)cc4F)c3nc12)C([2H])([2H])[2H] [Compound 46, (E)-1-((10S)-4-((4-([1,2,4]triazolo[1,5-a]pyridin-7-yloxy)-2-fluoro-5-methylphenyl)amino)-7,8,10,11-tetrahydro-9H-6,10-methanopyrimido[4′,5′:5,6]pyrido[3,2-b][1,4,7]oxadiazonin-9-yl)-4-(bis(methyl-d3)amino)but-2-en-1-one]",2470,6.84,7.04
117,"Cc1cc(Nc2ncnc3cc4c(nc23)N2CCN(C(=O)/C=C/C3(F)CN(C)C3)[C@H](CO4)C2)ccc1Oc1ccn2ncnc2c1 [Compound 53, (E)-1-((10S)-4-((4-([1,2,4]triazolo[1,5-a]pyridin-7-yloxy)-3-methylphenyl)amino)-7,8,10,11-tetrahydro-9H-6,10-methanopyrimido[4′,5′:5,6]pyrido[3,2-b][1,4,7]oxadiazonin-9-yl)-3-(3-fluoro-1-methylazetidin-3-yl)prop-2-en-1-one]",–,–,–
173,"Cc1cc(Nc2ncnc3cc4c(nc23)N2CCN(C(=O)/C=C/CN(C)C)CC(CO4)C2)ccc1Oc1ccn2ncnc2c1 (centres unmarked) [Compound 57, (E)-1-(4-((4-([1,2,4]triazolo[1,5-a]pyridin-7-yloxy)-3-methylphenyl)amino)-7,8,11,12-tetrahydro-6,11-methanopyrimido[4′,5′:5,6]pyrido[3,2-b][1,4,7]oxadiazecin-9(10H)-yl)-4-(dimethylamino)but-2-en-1-one]",–,–,–
–,"CCOc1cc2ncc(C#N)c(Nc3ccc(OCc4ccccn4)c(Cl)c3)c2cc1NC(=O)/C=C/CN(C)C [Neratinib, neratinib, reference compound]",–,–,3.5
105,"Cc1cc(Nc2ncnc3ccc(NC4=NC(C)(C)CO4)cc23)ccc1Oc1ccn2ncnc2c1 [Tucatinib, tucatinib, reference compound]",–,–,–

SMILES,IC50 (Ba/F3 ERBB2 YVMA; [3]) [nM],IC50 [1] [nM],IC50 [2] [nM],IC50 (Ba/F3 ERBB2 YVMA; [4]) [nM]
"[2H]C([2H])(/C=C/C(=O)N1CCN2C[C@H]1COc1cc3ncnc(Nc4cc(C)c(Oc5ccn6ncnc6c5)cc4F)c3nc12)N(C)C [Compound 58, (E)-1-((10S)-4-((4-([1,2,4]triazolo[1,5-a]pyridin-7-yloxy)-2-fluoro-5-methylphenyl)amino)-7,8,10,11-tetrahydro-9H-6,10-methanopyrimido[4′,5′:5,6]pyrido[3,2-b][1,4,7]oxadiazonin-9-yl)-4-(dimethylamino)but-2-en-1-one-4,4-d2]",7.79,869,5.5,–

# Reference: patent US11807649B2, “Fused tetracyclic quinazoline derivatives as inhibitors of ErbB2” (EnLiven Therapeutics, Inc., priority 2021, dated 2023)
